In data set [1] the test system is BaF3 cells expressing EGFR L858R-L718Q. Description: Ba/F3 EGFR cell viability (CellTiter-Glo), L858R-L718Q. The data set is classed as cell-based. The following applies: Mus musculus, read-out: CTGlo (GI50). An excerpt:
(§1) RPMI 1640 media, cell culture flasks, and 384-well microplates were purchased from VWR (Radnor, PA, USA). Fetal bovine serum (FBS) was purchased from Life Technologies (Carlsbad, CA, USA) and CellTiter-Glo® was purchased from Promega (Madison, WI, USA). The Ba/F3 parental cell line was purchased from CrownBio (Santa Clara, CA). BaF3 cell lines ectopically expressing the EGFR mutations L858R, L858R-T790M, L858R-C797S, and L858R-T790M-C797S were purchased from CrownBio and EGFR mutations L858R-L718Q, L858R-T790M-L718Q, L858R-L792H, and L858R-T790M-L792H, were purchased from Signosis (Santa Clara, CA).
(§2) Cell viability was assessed based on the quantification of ATP using the CellTiter-Glo® assay (Promega, Madison, WI, USA). To determine the effect of compounds on cell viability, all Ba/F3 cell lines were plated at a cell density of 2000 cells/well in 384-well plates using RPMI 1640+10% FBS and treated with compounds of interest using a 10-point half-log dilution series in duplicate for 72 hours, with the highest dose set at […]. CellTiter-Glo® reagent was then added and luminescence signals were measured using an EnVision™ Multimode plate reader (Perkin Elmer, Santa Clara, CA). For data normalization, cells untreated with the test compounds at Time=72 hours were set to 100% (equivalent to maximal cell growth after 72 hours); cells untreated with the test compounds at Time=0 hours were set to 0% (equivalent to cytostasis); and media-only wells were set to −100% (equivalent to complete cytotoxicity). % Viability was determined by normalizing the signal with positive and DMSO treated negative controls on the same microtiter plate. The half-maximal inhibition of cell growth (GI50) is computed from where the fitted curve crosses 50% while the half-maximal lethal dose (LD50) is computed from where the fitted curve crosses −50%.
For orientation: ATP-based viability assays read luminescence as a measure of living cells.

Data set [2] is described as follows: Tolerability / body weight change on oral dosing in tumor-bearing mice. It counts as in vivo. The method, then: Compound 1 was dosed at 20, 50, or 100 mg/kg/day and was formulated in PEG400 (20% v/v)+80% v/v SBECD (25% w/v) in ddH2O. […] Body weight and MTV were measured on a 2× weekly schedule. Statistical analysis was performed using a one-way ANOVA. Data are expressed as MTV±SEM.
Compound 1 and Compound 2 were dosed at 20, 50, or 100 mg/kg/day and was formulated in PEG400 (20% v/v)+80% v/v SBECD (25% w/v) in ddH2O. […] Body weight and MTV were measured on a 2× weekly schedule. Statistical analysis was performed using a one-way ANOVA followed by Dunnett's multiple comparison test. Data are expressed as MTV±SEM.
2×10^5 luciferase-expressing NCI-H1975-luc tumor cells suspended in 2 μL RPMI-1640 media were injected into the right forebrain of female BALB/c nude mice. Tumor growth was monitored using imaging analysis. Mice were injected intraperitoneally with 15 mg/mL of D-luciferin and anesthetized with 1-2% isoflurane inhalation. 10 minutes post luciferin injection, mice were imaged using IVIS Lumina III (Perkin Elmer) and total bioluminescence signal (BLI, photons/s) was measured in a region of interest (ROI). BLI from ROI were quantified and used as an indicator of tumor burden. […] Body weight and MTV were measured on a 2× weekly schedule. Statistical analysis was calculated using the Mann-Whitney U test. Data are expressed as bioluminescent signal (photons/s). […]

In data set [3] the test system is BaF3 cells expressing EGFR L858R. Briefly: Ba/F3 EGFR cell viability (CellTiter-Glo), L858R. The data set is classed as cell-based. The following applies: Mus musculus, read-out: CTGlo (GI50).
Source text: as §1, §2

The record followed here is patent publication US20240158418A1 (C4 Therapeutics, Inc., priority 2021, published 2024).

SMILES strings stand for the structures.

As for `O=C1CC[C@H](Nc2ccc(N3CCC(O)(CC(=O)N4CC5(C4)CN(c4ccc(-c6cc(F)c7c(c6)C(=O)N(C(C(=O)Nc6nccs6)c6ncn8c6CCC8)C7)cc4)C5)CC3)c(F)c2)C(=O)N1` (stereo partly drawn) [Compound 1, 2-(6,7-dihydro-5H-pyrrolo[1,2-c]imidazol-1-yl)-2-[6-[4-[2-[2-[1-[4-[[(3S)-2,6-dioxo-3-piperidyl]amino]-2-fluoro-phenyl]-4-hydroxy-4-piperidyl]acetyl]-2,6-diazaspiro[3.3]heptan-6-yl]phenyl]-4-fluoro-1-oxo-isoindolin-2-yl]-N-thiazol-2-yl-acetamide], the GI50 in data set [1] amounted to 24 nM; in data set [3], 12 nM. In addition, in data set [2], the “tolerability of oral dosing” value is “well tolerated”.

As to `Cn1nc(N2CCC(=O)NC2=O)c2ccc([C@H]3CCN(CC(=O)N4CC5(C4)CN(c4ccc(-c6cc(F)c7c(c6)C(=O)N(C(C(=O)Nc6nccs6)c6ncn8c6CCC8)C7)cc4)C5)CC3(F)F)cc21` (stereo partly drawn) [Compound 2, 2-(6,7-dihydro-5H-pyrrolo[1,2-c]imidazol-1-yl)-2-[6-[4-[2-[2-[(4R)-4-[3-(2,4-dioxohexahydropyrimidin-1-yl)-1-methyl-indazol-6-yl]-3,3-difluoro-1-piperidyl]acetyl]-2,6-diazaspiro[3.3]heptan-6-yl]phenyl]-4-fluoro-1-oxo-isoindolin-2-yl]-N-thiazol-2-yl-acetamide], the GI50 in data set [1] was 6 nM; in data set [3] it was 3 nM. Besides, in data set [2], the “tolerability of oral dosing” value was “well tolerated”.

The GI50 is the concentration at which growth is held to half of that of the control.
